Source: patent US6462055B2, “Alpha-methylbenzyl-containing thiourea inhibitors of herpes viruses containing a phenylenediamine group” (Wyeth, priority 1998, dated 2002)
Values after ≈ are worked out from the molar mass of the structure shown.

Tests used:
[1] = system: HSV-1; test: HSV Antiviral (ELISA) Assay in Vero cells; assay type: cell-based, herpes simplex virus type 1; details: HSV-1, Vero cells; for IC50: Human alphaherpesvirus 1, read-out: IC50 (ug/ml) HSV
Outline: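 Viral replication was quantified by cell-fixed ELISA for HSV glycoprotein D, using a β-galactosidase reporter and fluorogenic umbelliferyl substrate, about 24 h after HSV-1 infection (MOI 0.006) of Vero cells. Compounds, at several concentrations, were added 30 min pre-infection. IC50 was derived from fluorescence relative to the compound-free signal.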

[2] = system: HCMV recombinant mutant virus (RV145); test: microbe, parasite or virus in culture; assay type: cell-based, human cytomegalovirus; details: for IC50: Human betaherpesvirus 5, read-out: IC50 ug/ml HCMV, HCMV
From the text: Microtiter plate assay. Ninety-six well plate cultures of human foreskin fibroblasts are infected in the presence of inhibitor compound with a HCMV recombinant mutant virus whose genome contains the prokaryotic beta-glucuronidase gene (Jefferson, R. A., S. M. Burgess, and D. Hirsh. 1986. Beta-glucuronidase from Escherichia coli as a gene fusion marker. Proc. Natl. Acad. Sci. USA 83:8447-8451) whose expression is controlled by a viral promoter. An example of such a virus is RV145 (Jones, T. R., V. P. Muzithras, and Y. Gluzman. 1991. Replacement mutagenesis of the human cytomegalovirus genome: US10 and US11 gene products are nonessential. J. Virol. 65:5860-5872). Since it is under the control of a viral promoter, beta-glucuronidase expression is an indirect indicator of growth and replication of HCMV in this assay. At 96 hours post-infection, the infected cell lysates are prepared (using 50 mM sodium phosphate [pH7.0]containing 0.1% Triton X-100 and 0.1% sarkosyl) and assayed for beta-glucuronidase activity using a substrate for the enzyme which when cleaved yields either a product which can be measured […] in a spectrophotometer or fluorescently in a microfluorimeter. Examples of such substrates are p-nitrophenyl-beta-D-glucuronide and methylumbelliferylglucuronide, respectively. The presence of an antiviral compound is indicated by the reduced expression of the HCMV genome resident beta-glucuronidase gene, compared to the absence of inhibitor. […] Data from this assay generated using varying amounts of inhibitor compound is also used to estimate the IC50 of an inhibitor compound.

[3] = system: VZV strain Ellen; test: VZV Antiviral (ELISA) Assay in human foreskin fibroblast cells; assay type: cell-based, varicella-zoster virus; details: for IC50: read-out: IC50 (ug/ml) VZV
Outline: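 HFF cells infected with VZV Ellen at low multiplicity (<0.1) overnight were seeded at 3.5×10^4 cells/well in DMEM with 2% FBS plus compound and incubated three days at 37° C., 5% CO2. Viral replication was read by ELISA against glycoprotein II with β-galactosidase fluorogenic readout (ex 365/em 450 nm); IC50 relative to no-compound fluorescence.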

[4] = Human alphaherpesvirus 3, Fibroblast

SMILES: CC(NC(=S)Nc1ccc(NC(=O)c2ccccc2)cc1)c1ccc(F)cc1 (stereo not shown) [Example 758]
- IC50 [1]: > 10 µg/mL
- IC50 [2]: > 10 µg/mL
- IC50 [3, 4]: > 10 µg/mL

SMILES: CN(c1ccc(NC(=S)Nc2ccc(NC(=O)c3c(F)cccc3F)cc2)cc1Cl)C1CCCCC1 [Example 248]
- IC50 (ug/ml) HSV [1]: >10 µg/mL
- IC50 ug/ml HCMV [2]: 2 µg/mL (≈ 3.78 µM)
- IC50 (ug/ml) VZV [3]: 2 µg/mL (≈ 3.78 µM)
- % inhibition 10 ug/ml VZV [3]: 96%

SMILES: COc1ccccc1C(=O)Nc1ccc(NC(=S)Nc2cc(Cl)c(OC)c(Cl)c2)cc1 [Example 873]
- IC50 (ug/ml) HSV [1]: >10 µg/mL
- IC50 ug/ml HCMV [2]: 0.3 µg/mL (≈ 0.63 µM)
- IC50 (ug/ml) VZV [3]: >10 µg/mL
- % inhibition 10 ug/ml VZV [3]: 23%

SMILES: CS(=O)(=O)Nc1ccc(NC(=S)Nc2ccc(NC(=O)c3ccccc3F)cc2)cc1Cl [Example 370]
- IC50 (ug/ml) HSV [1]: >10 µg/mL
- IC50 ug/ml HCMV [2]: >10 µg/mL
- IC50 (ug/ml) VZV [3]: >10 µg/mL
- % inhibition 10 ug/ml VZV [3]: 16%

SMILES: CS(=O)(=O)c1ccc(NC(=S)Nc2ccc(NC(=O)c3c(F)cccc3F)cc2)cc1Cl [Example 392]
- IC50 (ug/ml) HSV [1]: >10 µg/mL
- IC50 ug/ml HCMV [2]: 0.5 µg/mL (≈ 1.01 µM)
- IC50 (ug/ml) VZV [3]: 2 µg/mL (≈ 4.03 µM)
- % inhibition 10 ug/ml VZV [3]: 92%

SMILES: O=C(CN1CCCCC1)Nc1ccc(NC(=S)Nc2ccc(NC(=O)c3ccccc3F)cc2)cc1Cl [Example 364]
- IC50 (ug/ml) HSV [1]: >10 µg/mL
- IC50 ug/ml HCMV [2]: >10 µg/mL
- IC50 (ug/ml) VZV [3]: >15 µg/mL
- % inhibition 10 ug/ml VZV [3]: 73%

SMILES: COc1cc(OC)c(NC(=S)Nc2ccc(NC(=O)c3ccccc3OC(C)=O)cc2)cc1Cl [Example 115]
- IC50 (ug/ml) HSV [1]: 4 µg/mL (≈ 8 µM)
- IC50 ug/ml HCMV [2]: 8 µg/mL (≈ 16 µM)
- IC50 (ug/ml) VZV [3]: 4 µg/mL (≈ 8 µM)
- % inhibition 10 ug/ml VZV [3]: 98%

SMILES: CCSc1ccc(NC(=S)Nc2ccc(NC(=O)c3ccccc3F)cc2)cc1Cl [Example 386]
- IC50 (ug/ml) HSV [1]: >10 µg/mL
- IC50 ug/ml HCMV [2]: 2 µg/mL (≈ 4.35 µM)
- IC50 (ug/ml) VZV [3]: >10 µg/mL
- % inhibition 10 ug/ml VZV [3]: 29%

SMILES: CC(NC(=S)Nc1ccc(NC(=O)c2cc3ccccc3o2)cc1)c1cc2ccccc2o1 (stereo not shown) [Example 981, Benzofuran-2-carboxylic acid {4-[3-(1-benzofuran-2-yl-ethyl)-thioureido]-phenyl}-amide]
- IC50 [1]: > 10 µg/mL
- IC50 [2]: > 10 µg/mL
- IC50 [3, 4]: 0.2 µg/mL (≈ 0.439 µM)

SMILES: CC(NC(=S)Nc1ccc(NC(=O)c2cccc(F)c2)cc1)c1ccc(F)cc1 (stereo not shown) [Example 800]
- IC50 [1]: > 10 µg/mL
- IC50 [2]: > 10 µg/mL
- IC50 [3, 4]: > 7.5 µg/mL

SMILES: CC(NC(=S)Nc1ccc(NC(=O)c2ccccc2C(F)(F)F)cc1)c1cc2ccccc2o1 (stereo not shown) [Example 974, N-{4-[3-(1-Benzofuran-2-yl-ethyl)-thioureido]-phenyl}-2-trifluoromethyl-benzamide]
- IC50 [1]: > 10 µg/mL
- IC50 [2]: > 10 µg/mL
- IC50 [3, 4]: > 7.5 µg/mL

SMILES: CC(NC(=S)Nc1ccc(NC(=O)c2ccccc2F)cc1)c1ccc(C#N)cc1 (stereo not shown) [Example 792]
- IC50 [1]: > 10 µg/mL
- IC50 [2]: 5 µg/mL (≈ 11.9 µM)
- IC50 [3, 4]: > 7.5 µg/mL

SMILES: COc1cc(OC)c(NC(=S)Nc2ccc(NC(=O)c3ccccc3Br)cc2)cc1Cl [Example 142]
- IC50 [1]: 0.4 µg/mL (≈ 0.768 µM)
- IC50 [2]: 10 µg/mL (≈ 19.2 µM)
- inhibition at 10 µg/mL ([3]; Human alphaherpesvirus 3, Fibroblast, read-out: % inhibition 10 ug/ml VZV, 10 ug/ml): 51%
- IC50 [3, 4]: > 15 µg/mL

SMILES: COc1cc(OC)c(NC(=S)Nc2ccc(NC(=O)c3ccccc3C(=O)O)cc2)cc1Cl [Example 184]
- IC50 (ug/ml) HSV [1]: >50 µg/mL
- IC50 ug/ml HCMV [2]: >50 µg/mL
- IC50 (ug/ml) VZV [3]: >10 µg/mL

SMILES: O=C(Nc1ccc(NC(=S)Nc2ccc(OCC(F)(F)F)cc2OCC(F)(F)F)cc1)c1ccccc1F [Example 1010, N-(4-{3-[2,4-Bis-(2,2,2-trifluoro-ethoxy)-phenyl]-thioureido}-phenyl)-2-fluoro-benzamide]
- IC50 [1]: > 10 µg/mL
- IC50 [2]: > 10 µg/mL
- IC50 [3, 4]: > 10 µg/mL

SMILES: Cc1ccccc1C(=O)Nc1ccc(NC(=S)Nc2ccc(N(C)C)c(Cl)c2)cc1 [Example 346]
- IC50 (ug/ml) HSV [1]: 6 µg/mL (≈ 13.7 µM)
- IC50 ug/ml HCMV [2]: 2 µg/mL (≈ 4.56 µM)
- IC50 (ug/ml) VZV [3]: >10 µg/mL
- % inhibition 10 ug/ml VZV [3]: 62%

SMILES: COc1cc(OC)c(NC(=S)Nc2ccc(NC(=O)c3ccccc3Cl)cc2)cc1Cl [Example 141]
- IC50 (ug/ml) HSV [1]: 0.25 µg/mL (≈ 0.525 µM)
- IC50 ug/ml HCMV [2]: 6 µg/mL (≈ 12.6 µM)
- IC50 (ug/ml) VZV [3]: >10 µg/mL
- % inhibition 10 ug/ml VZV [3]: 40%
